These results are taken from paper PMC7179180, “Novel 2,4-Disubstituted-1,3-Thiazole Derivatives: Synthesis, Anti-Candida Activity Evaluation and Interaction with Bovine Serum Albumine” (Molecules, 2020).

T1 sequence (P02769 25-607): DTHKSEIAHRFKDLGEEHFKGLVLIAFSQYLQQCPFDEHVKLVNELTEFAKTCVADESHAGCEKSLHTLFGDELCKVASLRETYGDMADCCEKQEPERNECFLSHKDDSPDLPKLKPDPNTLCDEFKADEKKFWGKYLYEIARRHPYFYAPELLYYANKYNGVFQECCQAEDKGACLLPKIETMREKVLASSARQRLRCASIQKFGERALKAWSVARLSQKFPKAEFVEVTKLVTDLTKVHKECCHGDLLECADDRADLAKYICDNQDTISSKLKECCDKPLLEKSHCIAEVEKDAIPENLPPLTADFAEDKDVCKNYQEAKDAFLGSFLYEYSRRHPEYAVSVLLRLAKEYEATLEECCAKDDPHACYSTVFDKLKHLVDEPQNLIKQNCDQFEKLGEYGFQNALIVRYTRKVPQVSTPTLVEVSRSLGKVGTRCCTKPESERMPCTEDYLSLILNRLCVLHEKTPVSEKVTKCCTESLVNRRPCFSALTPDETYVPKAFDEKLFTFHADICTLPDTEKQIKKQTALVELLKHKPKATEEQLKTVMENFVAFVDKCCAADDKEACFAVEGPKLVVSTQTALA

This assay addresses T1, bovine serum albumin (BSA) (Bos taurus, UniProt P02769).
T1 construct: gene ALB; native plasma protein, commercial BSA fraction V (Merck), mature single chain of 583 residues, no further purification
Kind of assay: Trp fluorescence quenching. The class given is binding. As to conditions: pH 7.4, room temperature, BSA 1.5 μM, double-log. An excerpt: Trp fluorescence quenching on bovine serum albumin (BSA)
Turning to `COc1ccc(-c2csc(COc3cc(C)ccc3C(C)C)n2)cc1` [4a, 2-((2-isopropyl-5-methylphenoxy)methyl)-4-(4-methoxyphenyl)thiazole], the “Kb × 10^4 (M^-1)” value is listed as 6.60 × 10^4 M^-1.
The figure for `Cc1ccc(C(C)C)c(OCc2nc(-c3ccc(Cl)cc3)cs2)c1` [4b, 4-(4-chlorophenyl)-2-((2-isopropyl-5-methylphenoxy)methyl)thiazole] is 6.98 × 10^4 M^-1; for `Cc1ccc(C(C)C)c(OCc2nc(-c3ccc(Br)cc3)cs2)c1` [4c, 4-(4-bromophenyl)-2-((2-isopropyl-5-methylphenoxy)methyl)thiazole] it is 2.61 × 10^4 M^-1.
Take `Cc1ccc(C(C)C)c(OCc2nc(-c3ccc4ccccc4c3)cs2)c1` [4d, 2-((2-isopropyl-5-methylphenoxy)methyl)-4-(naphthalen-2-yl)thiazole]: the “Kb × 10^4 (M^-1)” value is 8.51 × 10^4 M^-1.
On to `COc1ccc(-c2csc(NN=C(COc3cc(C)ccc3C(C)C)c3ccccc3)n2)cc1` [7a, 2-(2-(2-(2-isopropyl-5-methylphenoxy)-1-phenylethylidene)hydrazineyl)-4-(4-methoxyphenyl)thiazole], for which the “Kb × 10^4 (M^-1)” value is reported as 5.64 × 10^4 M^-1.
With `Cc1ccc(C(C)C)c(OCC(=NNc2nc(-c3ccc(Cl)cc3)cs2)c2ccccc2)c1` [7b, 4-(4-chlorophenyl)-2-(2-(2-(2-isopropyl-5-methylphenoxy)-1-phenylethylidene)hydrazineyl)thiazole], the “Kb × 10^4 (M^-1)” value is 18.02 × 10^4 M^-1.
Consider `Cc1ccc(C(C)C)c(OCC(=NNc2nc(-c3ccc(Br)cc3)cs2)c2ccccc2)c1` [7c, 4-(4-bromophenyl)-2-(2-(2-(2-isopropyl-5-methylphenoxy)-1-phenylethylidene)hydrazineyl)thiazole], for which the “Kb × 10^4 (M^-1)” value is 1.85 × 10^4 M^-1.
For the compound `Cc1ccc(C(C)C)c(OCC(=NNc2nc(-c3ccc4ccccc4c3)cs2)c2ccccc2)c1` [7d, 2-(2-(2-(2-isopropyl-5-methylphenoxy)-1-phenylethylidene)hydrazineyl)-4-(naphthalen-2-yl)thiazole], the “Kb × 10^4 (M^-1)” value is recorded as 9.14 × 10^4 M^-1.
